The subject of assay [1] is ECV304. The assay is described as follows: ECV304 endothelial cell proliferation, MTT assay. In kind it is cell-based, human. The settings on record: concentration causing 50% cytotoxicity; MTT after 72 hours. Here is the method:
30 μl of ECV304 cell suspension (50×10^4 cells/ml in RPMI 1640 containing 10% FBS) followed by 150 μl of medium was added to the wells of a 96-well tissue culture plate (Nunc, Denmark) and incubated (37° C., 5% CO2) overnight. […] Each concentration was plated in triplicates. 20μl of medium alone was added to control wells. After 72 hours of incubation an MTT assay (Mosmann, 1983) was performed and percentage inhibition in proliferation of treated cells was calculated with respect to control cells.
(In general: Formazan colour is commonly taken as a measure of viable cells.)

The test system of assay [2] is DU145. In words: Tumor cell cytotoxicity assay, prostate. In kind it is cell-based. The settings on record: for Prostate ECS Ratio: ED50 DU145 / ED50 ECV304; for Prostate DU145 (ED50): concentration causing 50% cytotoxicity. The source says:
(§1) The cytotoxicity assays for tumor cells have been described in detail in our application Ser. No. 09/040,856 filed in U.S. on Mar. 18, 1998.

Assay [3] has as its system L132. In words: Tumor cell cytotoxicity assay, lung. In kind it is cell-based. The settings on record: for Lung ECS Ratio: ED50 L132 / ED50 ECV304; for Lung L132 (ED50): concentration causing 50% cytotoxicity.
From the text: as §1

Assay [4] deals with PA-1. In words: Tumor cell cytotoxicity assay, ovary. Format: cell-based. The settings on record: for Ovary ECS Ratio: ED50 PA-1 / ED50 ECV304; for Ovary PA-1 (ED50): concentration causing 50% cytotoxicity.
From the text: as §1

In assay [5] the test system is HT-29. In words: Tumor cell cytotoxicity assay, colon. In kind it is cell-based. The settings on record: for Colon ECS Ratio: ED50 HT-29 / ED50 ECV304; for Colon HT-29 (ED50): concentration causing 50% cytotoxicity.
From the text: as §1

Take `CC(C)C1CCC2(C(=O)O)CCC3(C)C(CCC4C5(C)CCC(OC(=O)c6ccccc6C(F)(F)F)C(C)(C)C5CCC43C)C12` (stereo not drawn) [MJ943-RS]: the “Endothelial ECV304 (ED50)” value in assay [1] is 2.6 µg/mL. Also, in assay [2], the “Prostate ECS Ratio” value is above 1.5 and the “Prostate DU145 (ED50)” value is above 4 µg/mL. In addition, in assay [3], the “Lung ECS Ratio” value is listed as 1.5 and the “Lung L132 (ED50)” value came to 4 µg/mL. Further, in assay [4], the “Ovary ECS Ratio” value is listed as above 1.53 and the “Ovary PA-1 (ED50)” value is above 4 µg/mL. For the same compound, in assay [5], the “Colon ECS Ratio” value is 3.84 and the “Colon HT-29 (ED50)” value was above 10 µg/mL.
`C=CC(=O)OC(=O)C12CCC(C(=C)C)C1C1CCC3C4(C)CCC(O)C(C)(C)C4CCC3(C)C1(C)CC2` (stereo not drawn) [MJ1101-RS]: in assay [1], the “Endothelial ECV304 (ED50)” value was determined as 4.0 µg/mL. Besides, in assay [2], the “Prostate ECS Ratio” value is on record as above 2.5 and the “Prostate DU145 (ED50)” value was above 10 µg/mL. In addition, in assay [3], the “Lung ECS Ratio” value is given as 0.43 and the “Lung L132 (ED50)” value is 1.7 µg/mL. In assay [4], the “Ovary ECS Ratio” value is on record as above 1 and the “Ovary PA-1 (ED50)” value is above 4 µg/mL. Further, in assay [5], the “Colon ECS Ratio” value came to 2.5 and the “Colon HT-29 (ED50)” value is above 10 µg/mL.
In the case of `C=CC(=O)OC(=O)C12CCC(C(C)C)C1C1CCC3C4(C)CCC(O)C(C)(C)C4CCC3(C)C1(C)CC2` (stereo not drawn) [MJ1103-RS], the “Endothelial ECV304 (ED50)” value in assay [1] worked out at 2.0 µg/mL. In assay [2], the “Prostate ECS Ratio” value is recorded as above 2.0 and the “Prostate DU145 (ED50)” value was above 4 µg/mL. For the same compound, in assay [3], the “Lung ECS Ratio” value was determined as 2.0 and the “Lung L132 (ED50)” value is 4 µg/mL. In assay [4], the “Ovary ECS Ratio” value stood at 0.75 and the “Ovary PA-1 (ED50)” value worked out at 1.5 µg/mL. In addition, in assay [5], the “Colon ECS Ratio” value stood at 5.0 and the “Colon HT-29 (ED50)” value is 10 µg/mL.
As for `C=C(C)C1CCC2(C(=O)O)CCC3(C)C(CCC4C5(C)CCC(OC(=O)c6ccc(CCCCC)cc6)C(C)(C)C5CCC43C)C12` (stereo not drawn) [MJ1104-RS], the “Endothelial ECV304 (ED50)” value in assay [1] is 1.9 µg/mL. For the same compound, in assay [2], the “Prostate ECS Ratio” value turned out to be 1.05 and the “Prostate DU145 (ED50)” value came out at 2 µg/mL. In assay [3], the “Lung ECS Ratio” value turned out to be 3.1 and the “Lung L132 (ED50)” value amounted to 5.9 µg/mL. In assay [4], the “Ovary ECS Ratio” value is above 2.1 and the “Ovary PA-1 (ED50)” value was above 4 µg/mL. Further, in assay [5], the “Colon ECS Ratio” value was determined as 1.84 and the “Colon HT-29 (ED50)” value was found to be 3.5 µg/mL.
Consider `C=C(C)C1CCC2(C(=O)O)CCC3(C)C(CCC4C5(C)CCC(OC(=O)c6ccc(CCCCCCC)cc6)C(C)(C)C5CCC43C)C12` (stereo not drawn) [MJ1138-RS], for which the “Endothelial ECV304 (ED50)” value in assay [1] came to 1.7 µg/mL. In assay [2], the “Prostate ECS Ratio” value is given as above 5.8 and the “Prostate DU145 (ED50)” value is above 10 µg/mL. Further, in assay [3], the “Lung ECS Ratio” value turned out to be 4.1 and the “Lung L132 (ED50)” value turned out to be 7 µg/mL. Besides, in assay [4], the “Ovary ECS Ratio” value was above 2.3 and the “Ovary PA-1 (ED50)” value was above 4 µg/mL. Besides, in assay [5], the “Colon ECS Ratio” value was above 5.89 and the “Colon HT-29 (ED50)” value is above 10 µg/mL.

For the origin of these results see patent US6403816B1 (Dabur Research Foundation, priority 1997, dated 2002).
